Where a name gives a salt, the structure may show the parent alone.
Experiments:
[1] = biological target: T1, GKRP (Glucokinase Regulatory Protein) with human His-hepatic GK (Homo sapiens, UniProt Q14397); assay: GKRP NADPH Coupled Assay; assay type: biochemical; conditions: GK-GKRP EC50 (NADPH-coupled), indirect measure of glucose-6-phosphate, fluorescence; 1 μM GKRP (10×), 20 nM GK (5×)
T1 sequence (Q14397 1-625): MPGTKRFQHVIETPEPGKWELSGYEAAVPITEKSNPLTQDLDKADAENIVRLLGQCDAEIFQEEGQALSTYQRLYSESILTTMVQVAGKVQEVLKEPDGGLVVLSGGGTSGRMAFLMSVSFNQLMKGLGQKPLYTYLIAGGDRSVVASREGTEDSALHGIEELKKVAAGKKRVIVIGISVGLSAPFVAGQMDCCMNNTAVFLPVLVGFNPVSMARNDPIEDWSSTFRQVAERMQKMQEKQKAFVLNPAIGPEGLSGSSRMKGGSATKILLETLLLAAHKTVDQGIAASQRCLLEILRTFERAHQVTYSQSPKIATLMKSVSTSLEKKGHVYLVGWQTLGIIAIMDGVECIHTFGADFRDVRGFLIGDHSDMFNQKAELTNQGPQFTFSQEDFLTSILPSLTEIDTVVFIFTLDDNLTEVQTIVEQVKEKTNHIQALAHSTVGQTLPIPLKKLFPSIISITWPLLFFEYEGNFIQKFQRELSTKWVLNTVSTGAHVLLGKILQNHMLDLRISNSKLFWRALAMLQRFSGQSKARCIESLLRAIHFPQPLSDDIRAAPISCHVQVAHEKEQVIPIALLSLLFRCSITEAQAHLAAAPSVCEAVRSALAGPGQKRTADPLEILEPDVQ
Procedure: (§1) This assay is used to directly measure the formation of ^13C-glucose-6-phosphate from ^13C-glucose by liquid chromatography-mass spectrometry (LC MS/MS). Begin by preparing the following solutions: Compound Buffer (CB): 50 mM Tris, pH 7.5/4 mM MgCl2/6% DMSO/fresh 10 mM DTT from 1M frozen stock. Enzyme Buffer (EB): 50 mM Tris, pH 7.5/4 mM MgCl2/6% DMSO/fresh 0.1% BSA/fresh 0.01% Brij-35 (10% BSA and 1% Brij-35 stock). GK (Glucokinase) Working Stock (5×): Dilute human His-hepatic GK to 30 nM in EB buffer. […] After 30 minutes add 10 μl of GK Working Stock (5×). Re-seal the plate and incubate for another 30 minutes at room temperature while mixing. After the second 30 minutes, stop the reaction by the addition of 50 μl of 100% acetonitrile, seal, and mix for 5-10 minutes. Run 10 μl of this sample through the LC MS/MS (API 3200, Applied Biosystems Inc., Carlsbad, Calif.).
This assay is used as an indirect measure of glucose-6-phosphate (G6P) formed from glucose due to the enzymatic activity of glucokinase. Assay format is the same as for GKRP LC MS/MS Biochemical Assay with the following exceptions. GK Working Stock (5×): Dilute human His-hepatic GK to 20 nM in EB buffer. Stop & Detection Reagent (2×): Dilute β-nicotinamide adenine dinucleotide phosphate sodium salt (β-NADP) (Aldrich-Sigma, St. Louis, Mo.) to 2 mM from 100 mM stock (stock in 10 mM Tris, pH 9.2) and dilute glucose-6-phosphate dehydrogenase (Aldrich-Sigma, St. Louis, Mo.) to 0.04 Unit/μl from 10 Unit/μl (stock in 10 mM Tris pH 7.5/0.05% Brij-35) in 0.2 M Tris, pH 9.2/8% DMSO. After the initial 30 minute incubation add 10 μl of 20 nM GK diluted in EB (5×). Re-seal the plate and incubate for another 1 hour at room temperature while mixing. After 1 hour remove the seal and add 50 μl of Stop & Detection Reagent and incubate for 5 minutes at room temperature while mixing.

[2] = biological target: T1, GKRP (Glucokinase Regulatory Protein) with human His-hepatic GK; assay: GKRP LC MS/MS Biochemical Assay; conditions: 13C-glucose-6-phosphate formation, 1 μM GKRP (10×), 30 nM GK (5×)
Procedure: GKRP LC MS/MS Biochemical Assay
as §1

[3] = biological target: T1, GKRP (Glucokinase Regulatory Protein) with human His-hepatic GK; assay: biochemical; conditions: 13C-glucose-6-phosphate formation; 280 nM GKRP (10×), 30 nM GK (5×); read-out: GK-GKRP EC50 (LC MS/MS-2)
Summary of the method: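 Human His-tagged hepatic GK (30 nM in the 5× working stock) in 50 mM Tris pH 7.5, 4 mM MgCl2, 6% DMSO with DTT, BSA and Brij-35. Enzyme was added after a 30 min step and reacted 30 min at room temperature. The reaction was stopped with acetonitrile and 13C-glucose-6-phosphate formed from 13C-glucose was quantified by LC MS/MS.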

[4] = biological target: T2, interaction between glucokinase (GK) and glucokinase regulatory protein (GKRP) (Homo sapiens, UniProt Q14397); assay: biochemical; assay type: binding; conditions: avi-tagged GKRP, GK-fluorescein, AlphaScreen beads; read-out: GK-GKRP IC50 (Binding)
T2 sequence (Q14397 1-625): T1 sequence (Q14397 1-625)
Summary of the method: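 Avi-tagged human GKRP preincubated with compound for 20 min at room temperature, then 6 nM GK-fluorescein (concentration of added solution) introduced and incubated 2 h in the dark. Buffer: 20 mM Tris pH 7.5, 0.05% BSA, 1 mM DTT, 1 μM sorbitol-6-phosphate. Plate read on a fluorescence reader.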

[5] = read-out: GK-GKRP EC50 (LC MS/MS)

CC(O)(c1ccc(N2CCN(S(=O)(=O)c3cccs3)CC2CN2CC[C@@H](O)C2)cc1)C(F)(F)F (mixture of isomers) [Example 56, (3R)-1-((4-(2-thiophenylsulfonyl)-1-(4-(2,2,2-trifluoro-1-hydroxy-1-methylethyl)phenyl)-2-piperazinyl)methyl)-3-pyrrolidinol]
EC50 [1]: 3.5 µM

C[C@H]1CN(S(=O)(=O)c2cccs2)CCN1c1ccc(C(O)(CO)C(F)(F)F)cc1 (mixture of isomers) [Example 67, 2-(4-((2S)-2-methyl-4-(2-thiophenylsulfonyl)-1-piperazinyl)phenyl)-3,3,3-trifluoro-1,2-propanediol]
EC50 [2, 5]: 0.67 µM

CC(O)(c1ccc(N2CCN(S(=O)(=O)c3nccs3)CC2)cc1)C(F)(F)F (racemic) [Example 32, 1,1,1-trifluoro-2-(4-(4-(1,3-thiazol-2-ylsulfonyl)-1-piperazinyl)phenyl)-2-propanol trifluoroacetate]
EC50 ([2]; GK-GKRP EC50 (LC MS/MS)): 4.75 µM

CC(O)(c1ccc(N2CCN(S(=O)(=O)c3cccs3)C[C@@H]2Cn2ccnc2)cc1)C(F)(F)F (mixture of isomers) [Example 170, 2-(4-((S)-2-((1H-imidazol-1-yl)methyl)-4-(thiophen-2-ylsulfonyl)piperazin-1-yl)phenyl)-1,1,1-trifluoro-2-propanol]
EC50 [1]: 0.762 µM
EC50 [3]: 0.942 µM

CC(O)(c1ccc(N2CCN(S(=O)(=O)c3cccs3)C[C@@H]2Cn2ccc3nccnc32)cc1)C(F)(F)F (mixture of isomers) [Example 171, 2-(4-((S)-2-((5H-pyrrolo[2,3-b]pyrazin-5-yl)methyl)-4-(thiophen-2-ylsulfonyl)piperazin-1-yl)phenyl)-1,1,1-trifluoro-2-propanol]
EC50 [1]: 0.649 µM
EC50 [3]: 0.801 µM

CC(O)(c1ccc(N2CCN(S(=O)(=O)c3cccs3)C[C@@H]2Cn2ccc3cccnc32)cc1)C(F)(F)F (mixture of isomers) [Example 172, 2-(4-((S)-2-((1H-pyrrolo[2,3-b]pyridin-1-yl)methyl)-4-(thiophen-2-ylsulfonyl)piperazin-1-yl)phenyl)-1,1,1-trifluoro-2-propanol]
EC50 [1]: 0.253 µM
EC50 [3]: 0.249 µM

O=S(=O)(c1cccs1)N1CCN(c2ccc(C(O)(C(F)(F)F)C(F)(F)F)cc2)C(Cc2cccc(O)c2)C1 (racemic) [Example 176, 3-((1-(4-(1,1,1,3,3,3-hexafluoro-2-hydroxypropan-2-yl)phenyl)-4-(thiophen-2-ylsulfonyl)piperazin-2-yl)methyl)phenol]
EC50 [1]: 1.81 µM

CC(O)(c1ccc(N2CCN(S(=O)(=O)c3ccccc3)CC2)cc1)C(F)(F)F (single isomer, unassigned) [Example 24 Peak #2, 1,1,1-trifluoro-2-(4-(4-(phenylsulfonyl)-1-piperazinyl)phenyl)-2-propanol]
EC50 ([2]; GK-GKRP EC50 (LC MS/MS)): 3.01 µM

C[C@H]1CN(S(=O)(=O)c2nccs2)CCN1c1ccc(C(C)(O)C(F)(F)F)cc1 (single isomer, unassigned) [Example 34 Peak #1]
EC50 [1]: 2.5 µM

CC(O)(c1ccc(N2CCN(S(=O)(=O)c3cccs3)CC2CC2CCOCC2)cc1)C(F)(F)F (single isomer, unassigned) [Example 37 Peak #3, 1,1,1-trifluoro-2-(4-(2-(tetrahydro-2H-pyran-4-ylmethyl)-4-(2-thiophenylsulfonyl)-1-piperazinyl)phenyl)-2-propanol]
EC50 [1]: 13 µM

CC(O)(c1ccc(N2CCN(S(=O)(=O)c3cccs3)CC2CC2CCOCC2)cc1)C(F)(F)F (single isomer, unassigned) [Example 37 Peak #4, 1,1,1-trifluoro-2-(4-(2-(tetrahydro-2H-pyran-4-ylmethyl)-4-(2-thiophenylsulfonyl)-1-piperazinyl)phenyl)-2-propanol]
EC50 [1]: > 50 µM

C[C@H]1COCCN1CC1CN(S(=O)(=O)c2cccs2)CCN1c1ccc(C(C)(O)C(F)(F)F)cc1 (single isomer, unassigned) [Example 45 Peak #3]
EC50 [1]: 15.1 µM

O=S(=O)(c1cccs1)N1CCN(c2ccc(C(O)(CO)C(F)(F)F)cc2)CC1 (single isomer, unassigned) [Example 66 Peak #1, 3,3,3-trifluoro-2-(4-(4-(2-thiophenylsulfonyl)-1-piperazinyl)phenyl)-1,2-propanediol]
EC50 [2, 5]: 4.43 µM

O=S(=O)(c1cccs1)N1CCN(c2ccc(C(O)(CO)C(F)(F)F)cc2)CC1 (single isomer, unassigned) [Example 66 Peak #2, 3,3,3-trifluoro-2-(4-(4-(2-thiophenylsulfonyl)-1-piperazinyl)phenyl)-1,2-propanediol]
EC50 [2, 5]: 1.26 µM

O=S(=O)(c1cccs1)N1CCN(c2ccc(C(O)(CO)C(F)(F)F)cc2)[C@@H](Cc2ccccc2)C1 (single isomer, unassigned) [Example 68 Peak #1]
EC50 ([2]; GK-GKRP EC50 (LC MS/MS)): 0.87 µM

O=S(=O)(c1cccs1)N1CCN(c2ccc(C(O)(CO)C(F)(F)F)cc2)[C@@H](Cc2ccccc2)C1 (single isomer, unassigned) [Example 68 Peak #2]
EC50 ([2]; GK-GKRP EC50 (LC MS/MS)): 0.094 µM

O=S(=O)(c1cccs1)N1CCN(c2ccc(C(O)(C(F)(F)F)C(F)(F)F)cc2)C[C@H]1C1CC1 [Example 14, 2-(4-((3R)-3-cyclopropyl-4-(2-thiophenylsulfonyl)-1-piperazinyl)phenyl)-1,1,1,3,3,3-hexafluoro-2-propanol]
EC50 [1]: 5 µM

C[C@H]1CN(S(=O)(=O)c2ccoc2)CCN1c1ccc(C(C)(O)C(F)(F)F)cc1 (stereo partly drawn) [Example 30, 1,1,1-trifluoro-2-(4-((2S)-4-(3-furanylsulfonyl)-2-methyl-1-piperazinyl)phenyl)-2-propanol]
EC50 [1]: 3.12 µM

C[C@H]1COCCN1C[C@H]1CN(S(=O)(=O)c2ccc(N)nc2)CCN1c1ccc(C(O)(C(F)(F)F)C(F)(F)F)cc1 [Example 124, 2-(4-((2S)-4-((6-amino-3-pyridinyl)sulfonyl)-2-(((3S)-3-methyl-4-morpholinyl)methyl)-1-piperazinyl)phenyl)-1,1,1,3,3,3-hexafluoro-2-propanol]
EC50 [1]: 0.001 µM
EC50 [3]: 0.018 µM

CS(=O)(=O)N(C[C@H]1CN(S(=O)(=O)c2ccc(N)nc2)CCN1c1ncc(C(O)(C(F)(F)F)C(F)(F)F)cn1)c1ccccc1 [Example 234, N-(((2R)-4-((6-amino-3-pyridinyl)sulfonyl)-1-(5-(2,2,2-trifluoro-1-hydroxy-1-(trifluoromethyl)ethyl)-2-pyrimidinyl)-2-piperazinyl)methyl)-N-phenylmethanesulfonamide]
IC50 [4]: 0.004 µM
EC50 [3]: 0.017 µM
